Values of other authors as cited in US20240335377A1, “COMPOSITION AND METHODS OF TREATMENT USING TRANSDERMAL SUPPLEMENTATION” (Xygenyx Inc., priority 2023, published 2024).
Where a SMILES comes first, the peptide text is derived from it. [ ]: non-standard residue; d: D form. Cit = NC(=O)NCCC[C@H](N)C(=O)O

Legend:
[1] = tested on: F2-isoprostane; details: large doses of 1600-3200 IU/day
[2] = dietary supplementation, doses up to 400 IU/day
[3] = α-tocopherol taken as 1.0
[4] = tested on: markers of inflammation; details: supplementation, individuals with metabolic syndrome
[5] = tested on: skin; details: topical formulations, within four weeks of treatment
[6] = tested on: rheumatoid arthritis; details: rheumatoid arthritis study
[7] = tested on: skin; details: single penetration enhancer
[8] = tested on: wide dynamic range neurons in the ventroposterolateral nucleus of the thalamus
[9] = in vivo
[10] = even when dietary intake occurs in equal portions
[11] = tested on: skin; details: topical, concentrations 0.5-5%

Cc1c(C)c2c(c(C)c1O)CCC(C)(CCCC(C)CCCC(C)CCCC(C)C)O2 (stereo not drawn) [α-tocopherol]
blood plasma concentration of F2-isoprostane [1]: significantly lower | reduction of risk of coronary disease [2]: up to 34% | reduction of risk of developing neurodegenerative diseases such as Alzheimer's Syndrome or dementia ([2]; controlled trials): ≤ 24%

Cc1cc(O)cc2c1OC(C)(CCCC(C)CCCC(C)CCCC(C)C)CC2 (stereo not shown) [δ-tocopherol]
relative biological activity [3]: 0.03 | markers of inflammation in the blood [4]: reduced markers of inflammation

CC[C@H](C)[C@H](NC(=O)[C@H](CC(=O)O)NC(=O)[C@@H](N)CCCCN)C(=O)N[C@@H](CCCNC(N)=O)C(N)=O [tripeptide-10 citrulline, Tripeptide-10 citrulline] (H-KDI[Cit]-NH2)
improvement of suppleness [5]: ≤ 54%

C=C1CC/C=C(\C)CC[C@@H]2[C@@H]1CC2(C)C [β-caryophyllene]
swelling of joints and lymph nodes, circulating and articular leukocytes [6]: reduced swelling of joints and lymph nodes as well as the number of circulating and articular leukocytes

Cc1cc(O)c(C)c2c1OC(C)(CCCC(C)CCCC(C)CCCC(C)C)CC2 (stereo not drawn) [β-tocopherol]
relative biological activity [3]: 0.5

CC1CCC(C(C)C)C(O)C1 (stereo not shown) [Menthol]
increase of transdermal drug uptake (factor) [7]: ≥ 10

CCCCCc1cc(O)c2c(c1)OC(C)(C)[C@@H]1CCC(C)=C[C@@H]21 [THC, Δ-9-tetrahydrocannabinol]
power in mediating pain relative to morphine [8]: ten times more powerful than morphine

HGH: hormone comprising a peptide chain that is synthesized in the pituitary gland
biological half-life [9]: 10-20 minutes

Cc1c(O)cc2c(c1C)OC(C)(CCCC(C)CCCC(C)CCCC(C)C)CC2 (stereo not shown) [γ-tocopherol]
relative biological activity [3]: 0.1 | concentration in vivo relative to α-tocopherol [10]: roughly 10%

C/C(=C\CO)CCC[C@H](C)CCC[C@H](C)CCCC(C)C [phytol, Phytol]
solubility in water: nearly insoluble in water

CC12CCC(CC1)C(C)(C)O2 [eucalyptol, Eucalyptol]
increase of transdermal drug uptake (factor) [7]: more than 10

C=CCCCCCCCCC(=O)N[C@@H](Cc1ccccc1)C(=O)O [UP, Undecylenoyl phenylalanine]
time to skin lightening effects [11]: ≥ 7 days
